Test results taken from US11191790B2, “Biologically pure Faecalibacterium butyricigenerans strain, composition including the same and method for treating ulcerative colitis” (BGI SHENZHEN, priority 2016, dated 2021).

Tested on: UC modeled mice (DSS-induced ulcerative colitis)
Experiment: In vivo experiment in DSS-induced UC modeled mice
Set-up: species or system C57bl/6 mice
Description: With administration of AF52-21, saline or a positive drug, the therapeutic effect of Faecalibacterium butyricigenerans AF52-21 on the UC modeled mice was evaluated by observing body weight, mortality, fecal traits, occult/visual blood in stool, colon length, disease and activity index (DAI) and pathological parameters.
8 week-old C57bl/6 mice weighted 21 g±1 g in SPF grade were adaptively fed for one week. Then, 2% sodium dextran sulfate (DSS) was administered to the mice for 7 days to induce the UC modeled mice.
A total of 48 mice were randomly divided into four groups, with 12 mice in each group. The groups were as follows:
Group I: control group—normal mice without DSS induction;
Group II: UC modeled group—saline gavage after DSS induction;
Group III: UC treatment group—AF52-21 treatment after DSS induction;
Group IV: UC treatment group—positive drug (salicylazosulfapyridine, SASP) treatment after DSS induction.
UC modeled group: gavage with saline (0.85% NaCl).
AF52-21-treated group: administration with cultured AF52-21 in a stationary phase in a bacterial concentration of about 10^8 cfu/ml.
SASP-treated group: administration with 0.02 g/mL of aqueous SASP solution.
The mice in all groups were daily observed for food intake, spontaneous activities, body weight, fecal traits and occult/visual blood in stool. After DSS induction for 7 days, mice were treated according to the administration scheme in 4.3 for 2 weeks by daily gavage of 200 μL/mouse. After 14 days, mice in all groups were sacrificed for blood collection, colon collection for photographing and length-measuring, and collection of other organs for weighing. The colon was then stored in paraformaldehyde in a […] refrigerator.
The mice were given individual scores according to body weight, fecal traits and occult/visual blood in stool. The scoring criteria are as follows (Table 4).
The DAI is scored as the sum of the scores for body weight, fecal traits and occult blood/visual blood in stool.

[1] = daily gavage 200 μL/mouse, AF52-21 about 10^8 cfu/ml, SASP 0.02 g/mL
[2] = ratio of organ weight to body weight, x ± SD, after 14 days of treatment
[3] = sum of scores for body weight, fecal traits, occult/visual blood in stool, daily gavage 200 μL/mouse

SMILES: O=C(O)c1cc(/N=N/c2ccc(S(=O)(=O)Nc3ccccn3)cc2)ccc1O [SASP, salicylazosulfapyridine]
- Mice died during the entire experiment (12 mice in each group, 5 mice died in the UC modeled group): 2 mice
- Body weight, DSS induction at Day 7 (UC modeled mice, after 7 days 2% DSS, before treatment): 28.52 ± 3.12 g
- Body weight, DSS induction at Day 0 (UC modeled mice, before DSS induction and before treatment (baseline of the group)): 30.12 ± 2.25 g
- colon length (after 14 days of treatment, UC modeled group 6.11 ± 0.90): 6.54 ± 0.71
- Body weight, Treatment at Day 1 [1]: 26.51 ± 3.31 g
- Body weight, Treatment at Day 7 [1]: 27.60 ± 3.46 g
- Body weight, Treatment at Day 14 [1]: 29.98 ± 3.32 g
- Weight gain/decrease rate (decrease rate of body weight, UC modeled group 8 ± 0.8% decrease): 0.4 ± 0.2% (decrease rate)
- Colon histopathology (histological sections of mouse intestinal mucosa, FIG. 5, compared with the UC modeled group): reduced thickness of colon wall; and reduced number of inflammatory cells infiltrating in submucosa
- Colon index [2]: 9.88 ± 2.76 mg/g
- Kidney index [2]: 13.24 ± 1.74 mg/g
- Liver index [2]: 41.56 ± 6.04 mg/g
- Spleen index [2]: 6.24 ± 3.71 mg/g
- Thymus index [2]: 1.10 ± 0.39 mg/g
- DAI score, DSS induction for 7 days (sum of scores for body weight, fecal traits, occult/visual blood in stool, before treatment): 7.70 ± 2.85
- DAI score, Treatment for 7 days [3]: 5.89 ± 2.21
- DAI score, Treatment for 14 days [3]: 3.98 ± 1.38
